Experimental data from ChEMBL document CHEMBL1811820, “Vicenin-2, a potential anti-inflammatory constituent of Urtica circularis” (J Nat Prod, 2011).
Activity calls are given as the source filed them. The calls are words filed in the database; no cut-off is given here.

Legend:
[1] = test system: Mus musculus; assay: Antiinflammatory activity against Swiss mouse assessed as inhibition of 12-O-tetradecanoylphorbol acetate-induced ear edema at 1 mg/ear, topically administered measured after 4 hrs of 12-O-tetradecanoylphorbol acetate-challenge; assay type: functional
[2] = test system: Rattus norvegicus; assay: Antiinflammatory activity against Sprague-Dawley rat assessed as inhibition of carrageenan-induced paw edema at 10 mg/kg, ip administered 30 mins prior to carrageenan challenge measured after 5 hrs; assay type: functional; conditions: route intraperitoneal
[3] = test system: Peritoneal macrophage cell; assay: Antiinflammatory activity in mouse peritoneal macrophage assessed as decrease in LPS-stimulated TNFalpha release at 0.01 to 10 ug/mL after 24 hrs by ELISA relative to control in presence of LPS; assay type: functional, cell-based
[4] = molecular target: Transcription factor p65 (Mus musculus) (UniProt Q04207); assay: Inhibition of NF-kappaB p65 nuclear translocation in LPS-stimulated mouse peritoneal macrophage at 0.01 to 10 ug/mL after 24 hrs by nuclear absorbance assay
[5] = Antiinflammatory activity in mouse peritoneal macrophage assessed as decreased LPS-stimulated NO production at 0.01 to 1 ug/mL after 10 mins using Griess reagent by spectrophotometry; assay type: functional, Peritoneal macrophage cell
[6] = Antiinflammatory activity in mouse peritoneal macrophage assessed as increase in LPS-stimulated TNFalpha release at 100 to 1000 ug/mL after 24 hrs by ELISA relative to control in presence of LPS; assay type: functional, Peritoneal macrophage cell
[7] = Pro-inflammatory activity in mouse peritoneal macrophage assessed as increased NO production at 1000 ug/mL after 10 mins using Griess reagent by spectrophotometry in presence of LPS; assay type: ADME, cell-based; conditions: peritoneal macrophage cell
[8] = molecular target: Transcription factor p65 (Mus musculus) (UniProt Q04207); assay: Inhibition of NF-kappaB p65 nuclear translocation in LPS-stimulated mouse peritoneal macrophage at 10 to 500 ug/mL after 24 hrs by nuclear absorbance assay
[9] = molecular target: Transcription factor p65 (Mus musculus) (UniProt Q04207); assay: Increase in NF-kappaB p65 nuclear translocation in LPS-stimulated mouse peritoneal macrophage at 1000 ug/mL after 24 hrs by nuclear absorbance assay
[10] = Antiinflammatory activity in mouse peritoneal macrophage assessed as decreased LPS-stimulated NO production at 10 to 500 ug/mL after 10 mins using Griess reagent by spectrophotometry; assay type: functional, Peritoneal macrophage cell

Sequence of Transcription factor p65 (Mus musculus) (Q04207 whole entry): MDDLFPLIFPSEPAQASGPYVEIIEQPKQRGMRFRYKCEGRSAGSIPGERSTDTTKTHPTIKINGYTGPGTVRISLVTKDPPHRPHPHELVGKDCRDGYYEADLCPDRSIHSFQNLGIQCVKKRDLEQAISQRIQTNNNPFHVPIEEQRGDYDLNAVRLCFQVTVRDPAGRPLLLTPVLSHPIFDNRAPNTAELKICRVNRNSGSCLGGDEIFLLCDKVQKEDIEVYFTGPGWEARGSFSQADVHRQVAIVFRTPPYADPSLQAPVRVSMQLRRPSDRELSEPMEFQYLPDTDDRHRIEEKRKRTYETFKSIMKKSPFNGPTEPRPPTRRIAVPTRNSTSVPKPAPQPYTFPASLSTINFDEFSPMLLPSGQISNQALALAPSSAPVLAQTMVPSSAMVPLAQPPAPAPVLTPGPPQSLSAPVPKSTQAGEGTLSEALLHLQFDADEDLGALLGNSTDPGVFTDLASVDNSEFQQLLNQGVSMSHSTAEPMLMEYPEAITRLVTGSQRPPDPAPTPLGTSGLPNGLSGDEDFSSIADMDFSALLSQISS

Compound	inhibition (INH) [1] [%]	inhibition in vivo at 10 mg/kg [2] [%]	Activity [3]	inhibition [4]	inhibition (INH) [5] [%]	Activity [6] [%]	Activity [7]	inhibition [8]	Activity [9]	inhibition (INH) [10] [%]
COc1ccc2c(c1)c(CC(=O)O)c(C)n2C(=O)c1ccc(Cl)cc1 [INDOMETHACIN]	87.3	38.4								
O=c1cc(-c2ccc(O)cc2)oc2c([C@@H]3O[C@H](CO)[C@@H](O)[C@H](O)[C@H]3O)c(O)c([C@@H]3O[C@H](CO)[C@@H](O)[C@H](O)[C@H]3O)c(O)c12			Active	Active	70	62	Toxic	inactive	inactive	16
